From patent US12441725B2, “ISO-citrate dehydrogenase (IDH) inhibitor” (ZHEJIANG METON PHARMACEUTICAL CO., LTD, priority 2019, dated 2025)

Tests used:
[1] = target: T1, IDH (endogenous IDH1 R132C) in HT1080 cell (Homo sapiens, UniProt O75874, R132C); test: Cell-based assay for IDH inhibition (decrease of D-2-HG) in HT1080 cells; conditions: human fibrosarcoma cell line HT1080, 16 hours treatment, D-2-HG by LC-MS, in triplet
T1 construct: which harbor endogenous heterozygous IDH1 R132C and R132H mutation respectively and accumulate D-2-HG
Excerpt: The present disclosure also provides a cell-based method for assaying IDH inhibition and selectivity of the compounds in human fibrosarcoma cell line HT1080 and cholangiocarcinoma cell line HCCC 9810, which harbor endogenous heterozygous IDH1 R132C and R132H mutation respectively and accumulate D-2-HG. Tumor -derived IDH mutant lost its normal activity of producing α-KG, and gained a new activity of producing D-2-HG. D-2-HG is a metabolite specifically elevated in tumor cells expressing mutant IDH1 or IDH2 proteins. When treating such mutant IDH-expressing tumor cells with an effective IDH inhibitor, the synthesis of D-2-HG is blocked, and D-2-HG concentration is decreased by the oxidation reaction catalyzed by the endogenous D-2-HG dehydrogenase.
To perform a cell-based IDH inhibition assay, HT1080 and HCCC 9810 cells (or other cell lines harboring different IDH mutations) are cultured in DMEM supplemented with 10% FBS. The cells are treated with compounds of present disclosure at various different concentrations. 16 hours after the treatment, culture medium supernatants are removed and cell metabolites are extracted by 40% methanol and 40% acetonitrile in water (pre-chilled under −80° C.) at 4° C. for 1 hour. The extract supernatants are collected and cell debris are removed via high speed centrifugation. The resulting metabolite extracts are analyzed on an Agilent LC-MS system (model: 1290-6470) for 2-HG and glutamate concentration. A HILIC-Z column (2.1 mm×100 mm, […]) is employed on HPLC. Mobile phase A is 15 mM CH3COONH4 and 0.3% NH3·H2O in water. Mobile phase B is 15 mM CH3COONH4 and 0.3% NH3·H2O in 90% MeCN/10% H2O solvent. An 19% solvent A and 81% solvent B isocratic gradient method is used at a flow rate of 0.3 ml/min. D-2-HG is ionized under negative ion spray mode and detected through the multiple-reaction monitoring of a mass transition pair at m/z=147.0/128.9 and 147.0/85.1. Glutamate is ionized under ion spray mode and detected on negative polarity multiple-reaction monitoring of a mass transition pair at m/z=146/102 and 146/128 and its level is used to normalize 2-HG concentration. The activity of cellular mutant IDH proteins in the presence of each test compound at different concentrations can be represented by relative D-2-HG concentration to negative control samples (i.e., cells are treated with DMSO only), and the IC50 value could be determined to evaluate the inhibition and selectivity of each test compound on the IDH enzymatic activity.
The IDH inhibition activity of the compounds were assessed in human fibrosarcoma cell line HIT1080 according to Test 3 of the Biological Assay section. The test for IDH inhibition of each compound was carried out in triplet. As used in Table 6, “A” refers to an IDH inhibitory activity with an IC50<0.1 μM; “B” refers to an IDH inhibitory activity with an IC50 from 0.1 μM to 0.5 μM; “C” refers to an IDH inhibitory activity with an IC50 from 0.5 μM to 1 μM; “D” refers to an IDH inhibitory activity with an IC50>1 μM.

IDH1 R132C = target: T2, IDH1 R132C (Homo sapiens, UniProt O75874, R132C); test: Biochemical assay for IDH inhibition (NADPH fluorescence), mutant IDH1 R132C; conditions: 25 nM IDH1-R132C, 1 hour pre-incubation, in triplet
T2 construct: 6xHis
Excerpt: (§1) The present disclosure provides a biochemical assay method for detecting the IDH inhibition and selectivity of the compounds by detecting IDH enzyme activity directly.
(§2) Wild-type IDH enzymes convert NADP^+ to NADPH when catalyzing the α-KG producing reaction. Mutant IDH enzymes convert NADPH to NADP^+ when catalyzing the D-2-HG producing reaction. So, the activity of wild-type and mutant IDH1/2 could be measured by monitoring NADPH level change as NADPH is fluorescent (Excitation 340 nm, Emission 460 nm). By monitoring the change of NADPH level in the reaction, the enzyme activity could be determined rapidly and efficiently and IC50 of a compound could also be assayed.
(§3) The test compounds are prepared into 50 mM stock solutions in DMSO and stored at −20° C. Each test compound stock is further diluted to obtain a 100× stock solution at a concentration of 400 μM, 200 μM, 100 μM, 50 μM, 25 μM, 12.5 μM, 6.25 μM and 3.125 μM, respectively, for the final use on the day of test (the concentration range of 100× stock solutions might be adjusted to cover the estimated IC50 of a specific test compound).
(§4) Inhibition of Mutant IDH1 (R132H or R132C):
(§5) To assay the enzymatic activity of mutant IDH1 proteins, 25 nM IDH1-R132C or 50 nM IDH1-R132H protein solutions are prepared in 20 mM Tris-HCl pH7.5, 150 mM NaCl, 10 mM MgCl2, 1 mM DTT, 0.05 mg/ml BSA and 1.33 mM α-KG. 148 μL 25 nM IDH1-R132C or 50 nM IDH1-R132H protein solutions are mixed with 2 μL DMSO (vehicle control for test compounds) or an above-mentioned 100× stock solution of a test compound and incubated for 1 hour at room temperature. Extra reactions containing 148 μL no-enzyme solution (20 mM Tris-HCl pH7.5, 150 mM NaCl, 10 mM MgCl2, 1 mM DTT, 0.05 mg/ml BSA and 1.33 mM α-KG) and 2 μL DMSO are also set up as background controls. Then each reaction is initiated by adding 50 μL 80 μM NADPH solution prepared in 20 mM Tris-HCl pH7.5, 150 mM NaCl, 10 mM MgCl2, 1 mM DTT and 0.05 mg/ml BSA. BioTek Synergy H1 Microplate reader (BioTek Instruments Inc., Winooski, U.S.) is employed to monitor the NADPH fluorescence (Excitation 340 nm, Emission 460 nm) every 42 seconds for 15 minutes. NADPH change rate is determined according to the linear phase of the fluorescence-time curve and results from the background control reactions are used as background subtraction to calculate the net NADPH change rates of other reactions. The net NADPH change rates from the vehicle control reactions are used as 100% enzymatic activity and thus the relative enzymatic activity of reactions with test compounds added could be determined. Then a dose-response curve is drawn for each test compound and the corresponding IC50 is calculated. The IC50 value is used to evaluate the inhibition and selectivity of each test compound on the IDH enzymatic activity.
(§6) The IDH inhibition activity of the compounds were assessed according to Test 2 of the Biological Assay section. The test for mutant IDH1 R132H and IDH1 R132C inhibition of each compound was carried out in triplet. As used in Table 5, “A” refers to an inhibitory activity against IDH1 R132H or IDH1 R132C with an IC50<0.1 μM; “B” refers to an inhibitory activity against IDH1 R132H or IDH1 R132C with an IC50 from 0.1 μM to 0.5 μM; “C” refers to an inhibitory activity against IDH1 R132H or IDH1 R132C with an IC50 from 0.5 μM to 1 μM; “D” refers to an inhibitory activity against IDH1 R132H or IDH1 R132C with an IC50>1 μM.

IDH1 R132H = target: T3, IDH1 R132H (Homo sapiens, UniProt O75874, R132H); test: Biochemical assay for IDH inhibition (NADPH fluorescence), mutant IDH1 R132H; conditions: 50 nM IDH1-R132H, 1 hour pre-incubation, in triplet
T3 construct: 6xHis
Excerpt: as §1, §2, §3, §4, §5, §6

T3 sequence (O75874 whole entry R132H): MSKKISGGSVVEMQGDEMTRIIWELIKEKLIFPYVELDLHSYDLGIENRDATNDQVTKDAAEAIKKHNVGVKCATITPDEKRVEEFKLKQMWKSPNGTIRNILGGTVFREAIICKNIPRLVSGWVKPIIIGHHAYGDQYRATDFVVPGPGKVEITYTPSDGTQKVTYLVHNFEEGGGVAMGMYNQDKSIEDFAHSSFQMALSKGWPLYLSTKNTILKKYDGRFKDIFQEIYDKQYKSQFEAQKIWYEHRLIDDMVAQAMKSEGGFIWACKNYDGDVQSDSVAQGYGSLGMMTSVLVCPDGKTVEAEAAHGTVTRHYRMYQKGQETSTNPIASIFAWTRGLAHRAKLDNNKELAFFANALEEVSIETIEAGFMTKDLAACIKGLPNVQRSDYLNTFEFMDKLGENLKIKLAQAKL
T2 sequence (O75874 whole entry R132C): as the sequence (O75874 whole entry R132H) above, with H132C counted along it
T1 sequence (O75874 2-414 R132C): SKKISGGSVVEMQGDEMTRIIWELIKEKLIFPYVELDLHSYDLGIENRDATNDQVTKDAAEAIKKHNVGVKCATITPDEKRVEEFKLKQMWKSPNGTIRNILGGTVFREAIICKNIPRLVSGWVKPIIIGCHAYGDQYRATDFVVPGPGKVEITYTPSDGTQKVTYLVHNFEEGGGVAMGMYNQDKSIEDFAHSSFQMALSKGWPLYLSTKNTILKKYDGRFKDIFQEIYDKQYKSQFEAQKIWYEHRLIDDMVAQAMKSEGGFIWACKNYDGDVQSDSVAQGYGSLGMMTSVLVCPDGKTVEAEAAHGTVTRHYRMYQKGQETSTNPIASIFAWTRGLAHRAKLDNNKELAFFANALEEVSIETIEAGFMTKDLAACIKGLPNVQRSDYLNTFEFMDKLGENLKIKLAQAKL

Row | Compound | IC50 [1] [nM] | IC50 (IDH1 R132C) [nM] | IC50 (IDH1 R132H) [nM]
1 | CCN1Cc2c(ccnc2N[C@@H](C)c2ccc(-n3ccc(C)n3)c(F)c2)C1=O [Compound 59, (S)-2-ethyl-4-((1-(3-fluoro-4-(3-methyl-1H-pyrazol-1-yl)phenyl)ethyl)amino)-2,3-dihydro-1H-pyrrolo[3,4-c]pyridin-1-one] | > 1000 | > 1000 | > 1000
2 | CCN1Cc2c(ccnc2N[C@@H](C)c2ccc(C3CCN(C(C)(C)C)CC3)c(F)c2)C1=O [Compound 36, (S)-4-((1-(4-(1-(tert-butyl)piperidin-4-yl)-3-fluorophenyl)ethyl)amino)-2-ethyl-2,3-dihydro-1H-pyrrolo[3,4-c]pyridin-1-one] | > 1000 | > 1000 | > 1000
3 | CCN1Cc2c(ccnc2N[C@@H](C)c2ccc(-c3ccnc(C(C)(C)C)c3)cn2)C1=O [Compound 46, (S)-4-((1-(2′-(tert-butyl)-[3,4′-bipyridin]-6-yl)ethyl)amino)-2-ethyl-2,3-dihydro-1H-pyrrolo[3,4-c]pyridin-1-one] | > 1000 | > 1000 | > 1000
4 | CCN1Cc2c(ccnc2N[C@@H](C)c2ccc(Oc3cnn(C)c3)c(F)c2)C1=O [Compound 4, (S)-2-ethyl-4-((1-(3-fluoro-4-((1-methyl-1H-pyrazol-4-yl)oxy)phenyl)ethyl)amino)-2,3-dihydro-1H-pyrrolo[3,4-c]pyridin-1-one] | > 1000 | > 1000 | > 1000
5 | CCN1Cc2c(ccnc2N[C@@H](C)c2ccc(C(=O)NC3CCCCC3)c(Cl)c2)C1=O [Compound 62, (S)-2-chloro-N-cyclohexyl-4-(1-((2-ethyl-1-oxo-2,3-dihydro-1H-pyrrolo[3,4-c]pyridin-4-yl)amino)ethyl)benzamide] | > 1000 | > 1000 | > 1000
6 | CCN1Cc2c(ccnc2N[C@@H](C)c2ccc(-c3ccc(C(F)(F)F)cc3)c(F)c2)C1=O [Compound 33, (S)-2-ethyl-4-((1-(2-fluoro-4′-(trifluoromethyl)-[1,1′-biphenyl]-4-yl)ethyl)amino)-2,3-dihydro-1H-pyrrolo[3,4-c]pyridin-1-one] | > 1000 | > 1000 | 500 to 1000

Other lines, results leading:

Row | IC50 [1] [nM] | IC50 (IDH1 R132C) [nM] | IC50 (IDH1 R132H) [nM] | Compound
7 | 100 to 500 | 500 to 1000 | 100 to 500 | CCN1Cc2c(ccnc2N[C@@H](C)c2cc(F)c(-c3ccnc(C4CC(F)(F)C4)c3)cc2F)C1=O [Compound 97, (S)-4-((1-(4-(2-(3,3-difluorocyclobutyl)pyridin-4-yl)-2,5-difluorophenyl)ethyl)amino)-2-ethyl-2,3-dihydro-1H-pyrrolo[3,4-c]pyridin-1-one]
8 | > 1000 | > 1000 | > 1000 | CCN1Cc2c(ccnc2N[C@@H](C)c2cc(C)c(-c3ccnc(C(F)(F)F)c3)cn2)C1=O [Compound 45, (S)-2-ethyl-4-((1-(4-methyl-2′-(trifluoromethyl)-[3,4′-bipyridin]-6-yl)ethyl)amino)-2,3-dihydro-1H-pyrrolo[3,4-c]pyridin-1-one]
9 | < 100 | < 100 | < 100 | CCN1Cc2c(ccnc2N[C@@H](C)c2cc(F)c(-c3cc(C(C)(C)C)ncn3)cc2F)C1=O [Compound 110, (S)-4-((1-(4-(6-(tert-butyl)pyrimidin-4-yl)-2,5-difluorophenyl)ethyl)amino)-2-ethyl-2,3-dihydro-1H-pyrrolo[3,4-c]pyridin-1-one]
10 | < 100 | < 100 | < 100 | CCN1Cc2c(ccnc2N[C@@H](C)c2cc(F)c(-c3cc(C(C)(C)F)nc(OC)n3)cc2F)C1=O [Compound 141, (S)-4-((1-(2,5-difluoro-4-(6-(2-fluoropropan-2-yl)-2-methoxypyrimidin-4-yl)phenyl)ethyl)amino)-2-ethyl-2,3-dihydro-1H-pyrrolo[3,4-c]pyridin-1-one]
11 | 500 to 1000 | > 1000 | > 1000 | CCN1Cc2c(ccnc2N[C@@H](C)c2ccc(-c3ccnc(C(C)(C)C(N)=O)c3)c(F)c2)C1=O [Compound 69, 2-[4-[4-[(1S)-1-[(2-ethyl-1-oxo-3H-pyrrolo[3,4-c]pyridin-4-yl)amino]ethyl]-2-fluoro-phenyl]-2-pyridyl]-2-methyl-propanamide]
12 | 500 to 1000 | 100 to 500 | 100 to 500 | CCN1Cc2c(ccnc2N[C@@H](C)c2ccc(-c3ccnc(CC4CC4)c3)c(F)c2)C1=O [Compound 79, (S)-4-((1-(4-(2-(cyclopropylmethyl)pyridin-4-yl)-3-fluorophenyl)ethyl)amino)-2-ethyl-2,3-dihydro-1H-pyrrolo[3,4-c]pyridin-1-one]
13 | > 1000 | > 1000 | > 1000 | CCN1Cc2c(ccnc2N[C@@H](C)c2cc(F)c(-c3ccnc(C4(O)COC4)c3)cc2F)C1=O [Compound 94, (S)-4-((1-(2,5-difluoro-4-(2-(3-hydroxyoxetan-3-yl)pyridin-4-yl)phenyl)ethyl)amino)-2-ethyl-2,3-dihydro-1H-pyrrolo[3,4-c]pyridin-1-one]
